This is an account of results in patent US20160287589A1, “SUBSTITUTED-IMIDAZOPYRIDAZINES” (BAYER PHARMA AKTIENGESELLSCHAFT, priority 2013, published 2016).

Test [1] deals with T1, MKNK1 (Homo sapiens, UniProt Q9BUB5, T385D).
T1 construct: GST (N); purchased Carna Biosciences 02-145; host or cells: insect cells (baculovirus expression system)
Description: MKNK1 kinase assay (MKNK1 TR-FRET assay). It counts as biochemical. Conditions: 10 μM ATP, 15 min preincubation. A general note: TR-FRET usually uses a lanthanide donor and a delayed reading to cut background.

The target of test [2] is T1, MKNK1. Description: MKNK1 kinase high ATP assay (TR-FRET-based). Format: biochemical. Conditions: 2 mM ATP, 15 min preincubation. In outline: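 GST-tagged full-length human MKNK1 (aa 1-424, T344D) from insect cells, preincubated with compound 15 min at 22 °C. Reaction 30 min at 22 °C with 2 mM ATP and 0.06 μM biotinylated peptide in HEPES pH 7.5, Mg2+, DTT. Phosphopeptide detected by TR-FRET (665/622 ratio) with anti-pS6 (pSer236) antibody; normalised to no-inhibitor and no-enzyme controls.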

Molecules are shown by their SMILES. pIC50: −log10 of the molar value.

T1 sequence (Q9BUB5 1-424 isoform Q9BUB5-2 T344D): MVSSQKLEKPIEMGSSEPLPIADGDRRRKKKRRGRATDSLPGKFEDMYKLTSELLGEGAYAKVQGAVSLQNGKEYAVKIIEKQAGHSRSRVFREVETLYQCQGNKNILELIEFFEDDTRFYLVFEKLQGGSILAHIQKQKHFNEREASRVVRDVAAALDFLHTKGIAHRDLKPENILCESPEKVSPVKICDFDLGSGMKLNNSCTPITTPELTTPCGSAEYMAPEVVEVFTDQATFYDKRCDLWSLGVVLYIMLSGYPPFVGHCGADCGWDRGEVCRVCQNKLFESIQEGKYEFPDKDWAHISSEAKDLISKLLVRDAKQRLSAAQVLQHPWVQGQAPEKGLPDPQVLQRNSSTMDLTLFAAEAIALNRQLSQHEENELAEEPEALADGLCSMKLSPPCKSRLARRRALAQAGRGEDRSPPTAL

Usually pIC50 stands for the negative decadic logarithm of the IC50, by convention in mol/L. A lower pIC50 goes with a high IC50. Regarding `C[C@H](N)COc1ccc2ncc(-c3cc4c(N5CCNCC5)nccc4o3)n2n1` [III-17, (2S)-1-({3-[4-(Piperazin-1-yl)furo[3,2-c]pyridin-2-yl]imidazo[1,2-b]pyridazin-6-yl}oxy)propan-2-amine], the figures for the pIC50 on MKNK1 [1] (Table 1c) and at MKNK1 [2] (Table 2c) were 7.74 and 7.35, respectively.

For `O=C(NCCOc1ccc2ncc(-c3cc4ccccc4o3)n2n1)C1CCOCC1` [Example I-66, N-(2-{[3-(1-Benzofuran-2-yl)imidazo[1,2-b]-pyridazin-6-yl]oxy}ethyl)tetrahydro-2H-pyran-4-carboxamide], the pIC50 on MKNK1 [1] (Table 1a) is 8.14; against MKNK1 [2] (Table 2a), 7.83.

As to `COc1ccc2ncc(-c3cc4c(N5CCN(c6ccccc6)CC5)nccc4o3)n2n1` [III-91, 6-Methoxy-3-[4-(4-phenylpiperazin-1-yl)furo[3,2-c]pyridin-2-yl]imidazo[1,2-b]pyridazine], the pIC50 is 8.08 against MKNK1 [1] (Table 1c) and 7.74 against MKNK1 [2] (Table 2c).

In the case of `CCN(CCOC)c1nccc2oc(-c3cnc4ccc(O[C@H](C)CN)nn34)cc12` [III-32, 2-(6-{[(2R)-1-Aminopropan-2-yl]oxy}imidazo[1,2-b]pyridazin-3-yl)-N-ethyl-N-(2-methoxyethyl)furo[3,2-c]pyridin-4-amine], the pIC50 on MKNK1 [1] (Table 1c) is 9.22; against MKNK1 [2] (Table 2c) it was 8.82.

As for `CC(=O)N1CCN(c2nccc3oc(-c4cnc5ccc(OCCCS(C)(=O)=O)nn45)cc23)CC1` [III-51, 1-[4-(2-{6-[3-(Methylsulfonyl)propoxy]imidazo[1,2-b]pyridazin-3-yl}furo[3,2-c]pyridin-4-yl)piperazin-1-yl]ethanone], the values for the pIC50 against MKNK1 [1] (Table 1c) and against MKNK1 [2] (Table 2c) were 8.14 and 7.85, respectively.

As for `COc1ccc2ncc(-c3cc4c(N5CCNC[C@H]5C)cccc4o3)n2n1` [II-44, 6-methoxy-3-{4-[(2R)-2-methylpiperazin-1-yl]-1-benzofuran-2-yl}imidazo[1,2-b]pyridazine], the pIC50 on MKNK1 [1] (Table 1b) is 8.54; against MKNK1 [2] (Table 2b), 8.42.

On to `C[C@@H]1CN(c2nccc3oc(-c4cnc5ccc(OCCCS(C)(=O)=O)nn45)cc23)CCO1` [III-119, 3-{4-[(2R)-2-methylmorpholin-4-yl]furo[3,2-c]pyridin-2-yl}-6-[3-(methylsulfonyl)propoxy] imidazo[1,2-b]pyridazine], for which the results for the pIC50 against MKNK1 [1] (Table 1c) and against MKNK1 [2] (Table 2c) were 8.06 and 7.77, respectively.

For the molecule `C[C@H](N)COc1ccc2ncc(-c3cc4c(N5CCC[C@@H]5CO)nccc4o3)n2n1` [III-14, {(2R)-1-[2-(6-{[(2S)-2-Aminopropyl]oxy}imidazo[1,2-b]pyridazin-3-yl)furo-[3,2-c]pyridin-4-yl]pyrrolidin-2-yl}methanol], the pIC50 at MKNK1 [1] (Table 1c) is 8.16; against MKNK1 [2] (Table 2c) it was 7.75.

On to `NC(=O)C(Oc1ccc2ncc(-c3cc4ccccc4o3)n2n1)c1cccnc1` (stereo not drawn) [Example I-39, 2-{[3-(1-Benzofuran-2-yl)imidazo[1,2-b]pyridazin-6-yl]oxy}-2-(pyridin-3-yl)acetamide], for which the pIC50 at MKNK1 [1] (Table 1a) is 7.26; against MKNK1 [2] (Table 2a), 7.11.

With `O=C(NCCOc1ccc2ncc(-c3cc4ccccc4o3)n2n1)C1CCC1` [Example I-68, N-(2-{[3-(1-Benzofuran-2-yl)imidazo[1,2-b]-pyridazin-6-yl]oxy}ethyl)cyclobutane-carboxamide], the figures for the pIC50 against MKNK1 [1] (Table 1a) and at MKNK1 [2] (Table 2a) were 8.11 and 7.69, respectively.

For the molecule `C[C@@H](N)COc1ccc2ncc(-c3cc4c(N5CCOCC5)nccc4o3)n2n1` [III-1, (2R)-1-({3-[4-(Morpholin-4-yl)furo[3,2-c]pyridin-2-yl]imidazo[1,2-b]pyridazin-6-yl}oxy)propan-2-amine], the values for the pIC50 on MKNK1 [1] (Table 1c) and at MKNK1 [2] (Table 2c) were 8.08 and 7.71, respectively.

As for `CS(=O)(=O)CCCOc1ccc2ncc(-c3cc4c(N5CCN(c6ccccc6)CC5)nccc4o3)n2n1` [III-56, 6-[3-(Methylsulfonyl)propoxy]-3-[4-(4-phenylpiperazin-1-yl)furo[3,2-c]pyridin-2-yl]imidazo[1,2-b]pyridazine], the values for the pIC50 against MKNK1 [1] (Table 1c) and at MKNK1 [2] (Table 2c) were 7.68 and 7.77, respectively.
